{
  "source": "patent US20200278355A1",
  "about": "“CONJUGATED PROTEINS AND USES THEREOF” (THE SCRIPPS RESEARCH INSTITUTE, priority 2017, published 2020)",
  "key": {"[1]": {"target": "T1, SCP2 (Homo sapiens, UniProt P22307)", "T1 construct": "H460 cells or H460 cells expressing luciferase in a 10 cm plate were incubated with indicated compounds; endogenous in cells; host or cells: H460", "T1 sequence (P22307 whole entry)": "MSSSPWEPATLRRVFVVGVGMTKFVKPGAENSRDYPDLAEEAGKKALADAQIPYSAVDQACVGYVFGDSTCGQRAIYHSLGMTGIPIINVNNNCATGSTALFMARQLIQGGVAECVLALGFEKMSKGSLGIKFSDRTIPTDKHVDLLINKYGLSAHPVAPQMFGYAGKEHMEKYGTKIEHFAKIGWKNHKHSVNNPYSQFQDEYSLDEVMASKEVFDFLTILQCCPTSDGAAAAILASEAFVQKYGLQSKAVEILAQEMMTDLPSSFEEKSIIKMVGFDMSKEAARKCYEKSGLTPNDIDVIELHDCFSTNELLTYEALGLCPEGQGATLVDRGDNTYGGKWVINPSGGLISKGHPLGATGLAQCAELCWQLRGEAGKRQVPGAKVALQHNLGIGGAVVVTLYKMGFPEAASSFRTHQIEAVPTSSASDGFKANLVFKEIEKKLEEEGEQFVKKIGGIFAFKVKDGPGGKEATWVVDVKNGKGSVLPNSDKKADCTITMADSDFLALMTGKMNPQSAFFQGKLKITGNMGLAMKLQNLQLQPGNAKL", "test": "ABPP-SILAC BPK-29yne competition in H460 cells: SCP2", "assay_type": "cell-based", "conditions": "20 μM", "method": "(§1) Isotopically labeled H460 cell lines were generated as described above. Light and heavy cells were treated with compounds (20 μM) or DMSO, respectively, for 3 h, followed by labeling with the BPK-29yne (5 μM) for 30 min. Cells were washed once ice-cold PBS and lysed in 1% Triton 100-X dissolved in PBS with protease inhibitors (Sigma) by sonication. Lysate was adjusted to 1.5 mg ml^−1 in 500 μL. Samples were conjugated by CuAAC to Biotin-PEG4-azide (5 μL of 10 mM stocks in DMSO, final concentration=100 μM). CuAAC “click” mix contained TCEP, TBTA ligand and CuSO4 as detailed for isoTOP-ABPP sample preparation. Samples were further processed as detailed in: isoTOP-ABPP streptavidin enrichment and isoTOP-ABPP trypsin TEV digestion with the following exception: after overnight incubation at 37° C. with trypsin, tryptic digests were separated from the beads with Micro Bio-Spin columns (Bio-Rad) by centrifugation (1,000×g, 1 min). Beads were rinsed once with water (200 μL) and combined with tryptic digests. […]\n(§2) The MS2 spectra data were extracted and searched using RAW Convertor and ProLuCID algorithm as described in isoTOP-ABPP peptide and protein quantification. […] Ratios of heavy/light (DMSO/test compound) peaks were calculated using in-house CIMAGE software. […] The mean R values and standard deviation for multiple biological experiments were calculated from the average ratios from each replicate. […]"}, "[2]": {"target": "T2, TXNDC12 (Homo sapiens, UniProt O95881)", "T2 construct": "endogenous in cells; host or cells: H460", "T2 sequence (O95881 27-172)": "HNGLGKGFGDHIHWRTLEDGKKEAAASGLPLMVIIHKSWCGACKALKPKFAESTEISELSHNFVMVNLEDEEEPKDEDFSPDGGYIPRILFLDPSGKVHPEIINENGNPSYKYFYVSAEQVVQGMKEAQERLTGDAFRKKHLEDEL", "test": "ABPP-SILAC BPK-29yne competition in H460 cells: TXNDC12", "assay_type": "cell-based", "conditions": "20 μM", "method": "as §1, §2"}},
  "data": [
    {"smiles": "O=C(c1ccc(N2CCOCC2)cc1)N1CCCC(N(Cc2ccccc2)C(=O)CCl)CC1", "note": "(centres unmarked) [BPK-29, N-benzyl-2-chloro-N-(1-(4-morpholinobenzoyl)azepan-4-yl)acetamide]", "values": [
      {"measurement": "BPK-29-competed BPK-29yne analysis", "setting": "[1]", "result": "Yes (Competed defined as showing R value ≥ 2.5 at 20 μM of test compound)"},
      {"measurement": "BPK-29-competed BPK-29yne analysis", "setting": "[2]", "result": "Yes (Competed defined as showing R value ≥ 2.5 at 20 μM of test compound)"}
    ]}
  ]
}
